Data reported in patent US7708999B2, “Remedies for arthritis” (Kyowa Hakko Kirin Co., Ltd., priority 2001, dated 2010).

B1: HV6LV6: YB2/0 cell-derived anti-FGF-8 neutralizing CDR-grafted antibody, VH HV.6 (SEQ ID NO. 20), VL LV.6 (SEQ ID NO. 21) (antibody, V domains shown)
VH: QVQLVQSGAEVARPGASVKVSCKASGYTFTDYYLNWVRQRSGQGLEWIGEIDPGSDSIYYNENLEGRVTITADTSTSTAYMELSSLRSEDTAVYFCARYGYSRYDVRFVYWGQGTLVTVSS
VL: DVVMTQSPLSLPVSLGEPASISCRSSQSLVHSNGRTYLEWYLQKPGQSPKVLIYKVSNRISGVPDRFSGSGSGTDFTLKISRVEAEDVGVYFCFQGSHVPYTFGQGTKVEIK
modifications: HV.6, a designed amino acid sequence of VH of an anti-FGF-8 CDR-grafted neutralizing antibody; LV.6, a designed amino acid sequence of VL of an anti-FGF-8 CDR-grafted neutralizing antibody

How the values were obtained:
[1] = test system: mouse collagen-induced arthritis model; assay: Mouse collagen-induced arthritis model; format: in vivo; conditions: positive control, 0.3 mg/mL, 1 mL per 100 g orally
Description: The mouse collagen-induced arthritis model was prepared in the following manner according to the method of Kamada et al., (Kamada H. et al., Jpn. J. Pharmacol., 70, 169-175, 1996) using DBA/1J mice (male, 7 weeks old, Japan Charles River).
A bovine cartilage-derived type II collagen solution (manufactured by Collagen Gijutsu Kenshu) was mixed with a Freund's complete adjuvant (manufactured by Iatron) under ice cooling to form an emulsion which was adjusted such that the final concentration of the type II collagen became 1.5 mg/mL. The emulsion was intradermally injected in amount of 100 μL at the base of the tail of the mouse for sensitization. Twenty-one days later, the additional immunization was performed in the same manner. One group consisted of 10 mice. Anti-FGF-8 neutralizing antibody KM1334 was dissolved in a saline (manufactured by Otsuka Seiyaku Kojo) to a final concentration of 2 mg/mL, and the solution was intraperitoneally administered to a KM1334 administrated group at a dose of 200 μL for each mouse once a day on days 21, 25, 28, 32, 35 and 39 from the initial sensitization of the mouse collagen-induced arthritis model. […] The change with time of edemas of all limbs in collagen-induced arthritis was evaluated by the scoring from 0 to 4 in each limb to a total of 16 at the maximum score in all limbs. […]

[2] = test system: rat adjuvant arthritis model; assay: Rat adjuvant arthritis model; format: in vivo
Description: The rat adjuvant arthritis model was performed in the following manner according to the method of Pearson et al. (Pearson CM. et al., Arthritis Rheum., 5, 654-658, 1962) using Lewis rats (female, 8 weeks old, Japan Charles River).
Mycobacterium butyricum (manufactured by Difco) was suspended in a liquid paraffin (manufactured by Wako Pure Chemical Industries, Ltd.) to a final concentration of 6 mg/mL, and sterilized with a autoclave. The resulting solution was intradermally injected into the rat right hind pad in an amount of 100 μL for sensitization. One group consisted of 8 to 10 rats. Anti-FGF-8 neutralizing antibody KM1334 was dissolved in saline to a final concentration of 2 mg/mL. The solution was intraperitoneally administered to a KM1334 administrated group once a day at a dose of 0.5 mL per 100 g of the body weight for each rat on the sensitization day of the rat adjuvant arthritis model and on days 3, 7, 10, 14 and 17 from the sensitization. To saline administrated group, only saline was intraperitoneally administered instead of the anti-FGF-8 neutralizing antibody KM1334 solution. Further, sodium diclofenac, an antiinflammatory agent, was dissolved in a 0.5 w/v % methyl cellulose solution to a final concentration of 0.3 mg/mL, and the solution was orally administered to a sodium diclofenac administrated group as a positive control once a day at a dose of 1 mL per 100 g of the body weight on days 4, 7 to 11 and 14 to 18 from the adjuvant sensitization day. 50 mg of methotrexate® for injection (manufactured by Wyeth Japan) as a metabolic antagonist was dissolved in a 0.5 w/v % methyl cellulose solution to a final concentration of 0.01 mg/mL, and the solution was administered to a methotrexate administrated group in the same manner as in the sodium diclofenac administrated group. Prednisolone (manufactured by Sigma-Aldrich), a steroidal agent, was suspended in a 0.5 w/v % methyl cellulose solution to a final concentration of 0.3 mg/mL, and the suspension was administered to a prednisolone administrated group in the same manner as in the sodium diclofenac administrated group. Further, a 0.5 w/v % methyl cellulose solution alone was orally administered to a solvent administrated group in the same manner. An untreated group was used, and it was not subjected to sensitization with Mycobacterium butyricum and administration of an agent. The volumes of the adjuvant-treated paw and the adjuvant-untreated paw were measured as time goes by using a device for measuring edemas of rat hind paw (TK-101, manufactured by Unicom).
Using urine collected for 24 hours at day 20 and day 21 after the sensitization, the amounts of glycosaminoglycan, deoxypyridinoline, hydroxyproline and creatinine in urine were measured. The amount of glycosaminoglycan in urine was measured by the DMMB method described in Example 1. The amount of hydroxyproline in urine was measured by the method of Ikeda et al. (Ikeda Shingo et al., Tokyo Eiken Nenpo, 36 277-282, 1985). That is, 0.8 mL of hydrochloric acid for amino acid analysis (manufactured by Kanto Kagaku) was added to 0.8 mL of urine to hydrolyze at 110° C. for 15 hours. To 0.5 mL of the hydrolyzed sample was added 2 mL of a 1.2 mol/L sodium hydroxide solution for neutralization. 1 mL of isopropanol was added to 0.5 mL of the neutralized sample, and 1 ml of an oxidant solution was added. The mixture was stirred well, and allowed to stand at room temperature for 5 minutes. […]

FGF-8 = biological target: T1, FGF-8 (Homo sapiens, UniProt P55075); assay: FGF-8 binding activity by BIAcore 2000, immobilized FGF-8; conditions: antibody 50 μg/mL; FGF-8 immobilized 4498 RU
T1 construct: purchased R & D
T1 sequence (P55075 23-215 isoform P55075-3 limits assumed): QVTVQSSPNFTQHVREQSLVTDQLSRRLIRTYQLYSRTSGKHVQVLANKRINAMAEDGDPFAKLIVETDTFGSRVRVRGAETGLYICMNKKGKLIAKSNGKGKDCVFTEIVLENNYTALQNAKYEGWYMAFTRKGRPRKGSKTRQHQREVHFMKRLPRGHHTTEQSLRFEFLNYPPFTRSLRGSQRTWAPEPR
Description: In order to examine the FGF-8 binding activity of the various anti-FGF-8 neutralizing CDR-grafted antibodies obtained in 4. of Reference Example 2 in more detail, the FGF-8 binding activity of the various anti-FGF-8 neutralizing CDR-grafted antibodies was measured and compared in the following manner using BIAcore2000 (manufactured by BIACORE). The YB2/0 cell-derived anti-FGF-8 neutralizing chimeric antibody KM3334 obtained in 3.(2) of Reference Example 1 was used as a positive control.
HBS-EP (manufactured by BIACORE) was used hereinafter as a sample diluent and a buffer during measurement. First, Sensor Chip CM5 (manufactured by BIACORE) was installed, and FGF-8 (manufactured by R & D) dissolved in 31.25 μg/mL of 10 mmol/L acetate buffer solution (pH 4.0) was immobilized on the surface of the sensor chip by the amine coupling method. The immobilization amount measured by using a resonance signal (RU) as an index was 4498 RU.
60 μL of each of the antibody solutions was added to an FGF-8 immobilized flow cell at a flow rate of 20 μL/min, and the dissociation reaction was then monitored for 3 minutes. After the dissociation reaction, 20 μL of a 10 mmol/L glycine-hydrochloride solution (pH 1.5) was added to the flow cell twice continuously to regenerate the surface of the chip. This cycle was performed with the antibody solution at various concentrations (from 50 to 0.068 μg/mL) to obtain sensor grams at various concentrations. The sensor grams of the respective antibodies were converted to sensor grams of specific reactions by deducing a sensor gram obtained using chimeric antibody KM871 (Shitara K. et al., Cancer Immunol. Immunother., 36, 373-380, 1993) to GD3 as a negative control. […] Accordingly, the binding activity of the various antibodies was compared in terms of the binding [resonance signal (RU)] in the binding reaction. […] The effect of restoring the binding activity was not observed in the 6 amino acid residues of FR of VH.

Molecule	degree of the inhibition of the arthritic score compared with the KM1334 administrated group [1]	Bone destruction score ([2]; Table 2, soft X-ray of calcaneus, adjuvant-untreated paw, day 21, maximum 5, mean ± standard error, oral comparators)	Bone destruction score (% inhibition) ([2]; Table 2, vs solvent group)	inhibition of the increase in paw volume, adjuvant-untreated paw ([2]; day 21, oral, 1 mL per 100 g: sodium diclofenac 0.3 mg/mL, methotrexate 0.01 mg/mL, prednisolone 0.3 mg/mL, vs solvent group)	inhibition of the increase (decrease) in amount of glycosaminoglycan in urine ([2]; urine day 20 to 21, oral comparators vs solvent group, diclofenac and prednisolone not significant)	inhibition of the increase (decrease) in amount of deoxypyridinoline in urine ([2]; urine day 20 to 21, oral comparators vs solvent group, methotrexate and prednisolone not significant)	binding reaction [resonance signal (RU)] (FGF-8)
O=C(O)Cc1ccccc1Nc1c(Cl)cccc1Cl [sodium diclofenac]	the same	3.1 ± 0.6	33%	45%	40%	88%	–
B1	–	–	–	–	–	–	slightly low in comparison to KM3334 and HV0LV6
